# Test results taken from a melting point compilation (Tetko et al.; mined from patent text by program, amines drawn as free bases though some values may be those of a salt).
row,melting point,Structure (SMILES)
1,147 to 149 °C,Cc1ccccc1-c1ccc(C(=O)N2Cc3ccc(C(=O)NCc4ccc(OC(F)(F)F)cc4)n3Cc3ccccc32)cc1C
2,93 to 96 °C,Cn1c(C(F)(F)F)cc(=O)n(-c2cc(OCC3CO3)c(Cl)cc2F)c1=O (centres undefined)
3,163 to 165 °C,CCC(C)(O)C(=O)Nc1ccc(S(=O)(=O)c2ccccc2)cc1 (centres undefined)
4,152 °C,COC[C@@H]1CC[C@H](c2ccc(F)cc2)N1S(=O)(=O)c1ccc(C)cc1 (racemic)
5,150 to 151 °C,CCc1nn(C2CCCC2)c2c1CCn1c-2nnc1C(C)(C)C
6,106 to 108 °C,Cc1cc(SCC#Cc2ccc(Cl)cc2)ccc1OCC(=O)O
7,161 to 162 °C,Cc1ccc(-c2ncc(N(C)CCCCOCC(=O)O)nc2-c2ccc(C)cc2)cc1
8,81 to 82 °C,CCC(O)(CC)c1ccc(-c2cccc(OCc3ccc(CO)c(CO)c3)c2C)c(C)c1
9,144 to 146 °C,CCOC(=O)N(CC(=O)O)C(=O)c1c(Cl)ccc2c(C(F)(F)F)c(OC)ccc12
10,112 to 113 °C,Fc1ccc2c(C3CCN(CCC4COc5ccccc5O4)CC3)noc2c1 (centres undefined)
11,98 to 99 °C,CCCCCCn1c2cc(CO)ccc2c2ccc(CO)cc21
12,94 to 96 °C,Cc1nc2c(s1)C(=O)C=C(NCCCN(C)CCCNC1=CC(=O)c3sc(C)nc3C1=O)C2=O
13,85 to 86 °C,CCOC(=O)Cc1c(C)n(Cc2cccc(OC)c2)c2ccc(OCc3csc(-c4ccccc4)n3)cc12
14,115 °C,CCCOCCOc1ccc(OCC(O)CNCCNC(N)=O)cc1 (centres undefined)
15,224 to 226 °C,O=C(O)c1ccc(F)c2c1C=CCO2
16,207 to 208 °C,CN(C)c1ccc(C=CC(=O)CC(=O)C=Cc2ccc(N(C)C)cc2)cc1
17,111 to 113 °C,Cc1oc(-c2cccc([N+](=O)[O-])c2)nc1CCl
18,157 to 161 °C,CC(C)(C)OC(=O)Nc1cc(N2CCC(OC3CCCCO3)CC2)c(-c2ccc(F)cc2)cc1N (racemic)
19,82 to 83 °C,COC(=O)c1cc(NS(C)(=O)=O)ccc1OC
20,85 to 88 °C,CCCc1cc(F)c2oc(Cc3ccc(OC)cc3)c(C)c2c1OC(C)=O
21,259 to 260 °C,Cc1nc2c3c(c(C(=O)N4CC(F)C4)cc2n1C)CCC1(Cc2ccccc2C1)N3
22,89 to 91 °C,CC(Oc1ccc(F)cc1Cl)c1ccnc2ncnn12 (centres undefined)
23,166 °C,O=C(O)c1ccc2c(c1)OC(c1cccc(Cl)c1)(c1cccc(Cl)c1)O2
24,131 °C,CC(C)C(=O)N[C@H]1C[C@@H](c2cc(NC(=O)Cc3cccc4ccccc34)n[nH]2)C1

row,melting point,Structure (SMILES)
1,146 to 149 °C,O=C(NCCN1CCOCC1)c1ccc(-c2ccc3nnn(Cc4ccc5ncccc5c4)c3n2)cc1
2,142 to 144 °C,Cc1c(C)c2c(c(C)c1O)C(=O)C(C)(C)O2
3,160 to 162 °C,COc1cc(C(O)C(Cl)(Cl)Cl)cc(OC)c1O (centres undefined)
4,177 to 180 °C,CC(NC(Nc1cc(C(F)(F)F)cc(C(F)(F)F)c1)=C(C#N)S(=O)(=O)C(C)C)C(C)(C)C (centres undefined)
5,105 to 108 °C,COC(=O)Cn1c(CCc2ccccc2)ccc(NC(=O)CCc2ccccc2)c1=O
6,140 to 141 °C,CC(C)(C)c1cc(-c2nn(CC3COC(=O)O3)c3ncccc23)cc(C(C)(C)C)c1O (centres undefined)
7,240 to 244 °C,CS(=O)(=O)OC1CN(c2c(F)cc3c(=O)c(C(=O)O)cn(C4CC4)c3c2F)C1
8,> 300 °C,[N-]=[N+]=NCc1cc(C(N)C(=O)O)ccc1O (centres undefined)
9,151 to 152 °C,COc1ccc(NC(=O)Cn2c3c(c4cc(Cl)c(Cl)cc42)CCN(C(=O)OC(C)(C)C)CC3)cc1
10,256 to 258 °C,CCc1cccc(C)c1CNc1cc(C(=O)NCCO)nc2c1nc(C)n2C
11,149 to 151 °C,CCC1c2ccc(F)n2-c2ccc(F)cc2N1S(=O)(=O)c1ccc(O)c(C)c1 (centres undefined)
12,144 to 145 °C,CNc1nc(C(C)c2ccc(-c3ccccc3)c(F)c2)cs1 (centres undefined)
13,254 to 255 °C,CNC(=NS(C)(=O)=O)NCc1cccc(-c2csc(N=C(N)N)n2)n1
14,221 to 222 °C,Cc1ccc(C(=O)Cn2cc(Cl)cnc2=O)c(C)c1
15,64.5 to 65.5 °C,CSC(=C[N+](=O)[O-])NCCSCc1ccsn1
16,230 to 231 °C,N[C@H](Cc1cccc(C(=O)c2ccccc2)c1)C(=O)O
17,147 to 150 °C,NC(=O)c1ccccc1CNC(=S)NC(=O)c1ccccc1
18,148 °C,COC(=O)c1ccc(Cc2c(Cl)n(C)c3ccc(CC(C)NC(=O)N(C)C)cc23)c(OC)c1 (centres undefined)
19,83 to 85 °C,CCOC(=O)CCC(=O)c1ccc(CCNS(=O)(=O)c2cccc(C(F)(F)F)c2)cc1
20,42 to 43 °C,COc1ccc(CCCCCCCC(=O)O)cc1
21,151 to 160 °C,COC(=O)/C=C/c1ccc(N2CCCC2=O)nc1
22,44 to 49 °C,COCOc1ccc(Cl)c(F)c1C=O
23,162 °C,C#Cc1ccc(Nc2c(C(=O)NOCCO)ccc(F)c2F)c(F)c1
24,178 to 180 °C,O=C(Nc1ccc2oc3c(c2c1)CCCC3)c1ccccc1

row,melting point,Structure (SMILES)
1,224 to 227 °C,Cc1cc(=O)[nH]nc1-c1cccc(C(F)(F)F)c1
2,180 to 182 °C,ClC1=Nc2cc(Cl)ccc2Oc2cscc21
3,64.5 °C,CN(CC(=O)O)c1ccc(C#N)cc1
4,55 to 57 °C,CC#CCOc1ccc(S(=O)(=O)N(C)C(C(=O)NO)C(C)(C)SCCN(CC)CC)cc1 (centres undefined)
5,159 to 161 °C,CC(C)OC(=O)N1CC(=O)Nc2ccc(Br)cc21
6,135 to 138 °C,O=C(O)CON(Cc1ccc(F)cc1)C(=O)C=C(O)C(=O)O
7,238 to 242 °C,c1ccc(C(N=C2NCCCN2)c2ccccc2)cc1
8,117 to 121 °C,CCCCCCCCCCCCCCCCCCNC(=O)Oc1ccc([N+](=O)[O-])cc1OC(=O)NCCCCCCCCCCCCCCCCCC
9,127 to 128 °C,O=[N+]([O-])c1ccc(OS(=O)(=O)c2cccnc2Cl)cc1
10,72 to 74 °C,C=CCOc1ccc2c(c1)OCC1c3ccccc3OC21 (centres undefined)
11,112 to 114 °C,O=C1CCCCCC1n1nc(-c2c(-c3ccccc3)nn3ccccc23)ccc1=O (centres undefined)
12,163 to 165 °C,COc1cccc(-c2ccnc3ncnn23)c1
13,159 °C,CCc1cccc(-c2c(-c3ccc4nn(C)cc4c3)nsc2NC(=O)[C@@H]2C[C@H]2C)n1
14,70 to 75 °C,CC(=O)N1CCc2c(sc(C)c2CCN2CCC(c3noc4cc(F)ccc34)CC2)C1
15,94 to 95 °C,COc1ccc(C(=O)C2(Br)CCCCC2)c(Cl)c1Cl
16,65 to 67 °C,CCC1(CCCCCl)C(=O)Nc2c(Cl)cc(Cl)cc21 (centres undefined)
17,130 to 132 °C,Cc1ccc2cccc(OCc3c(Cl)ccc(S(=O)(=O)N4CCCC4C(=O)NCCCN)c3Cl)c2n1 (centres undefined)
18,268 to 272 °C,O=c1cc(-c2ccncn2)nc2n1CCCN2
19,161 to 162 °C,CCc1cc(Nc2cc(Cl)c(C(F)(F)F)cc2[N+](=O)[O-])c(OC)cc1OC
20,191 to 192 °C,COc1cc2cc(C(=O)N3CC(CCl)c4c3cc(NC(=O)OCc3ccc([N+](=O)[O-])cc3)c3ccccc43)[nH]c2c(OC)c1OC (centres undefined)
21,250 to 251 °C,COc1ccc(N2C(=O)c3ccc(Cl)cc3C2CC(=O)O)cc1 (centres undefined)
22,255 to 256 °C,O=C(c1ccc([N+](=O)[O-])cc1)N1CCc2cn[nH]c2-c2ncccc21
23,> 230 °C,CSc1nn2c(N)cc(N3CCN(C)CC3)nc2c1S(=O)(=O)c1ccccc1
24,228 °C,COc1cc2c(cc1OC)C1=NCCc3cccc(c31)C2=O

row,melting point,Structure (SMILES)
1,204 to 205 °C,Cc1ccc2c(c1)NC(=O)CO2
2,96 to 98 °C,CCc1ncc(CCCOc2c(C)cc(-c3nnn(C)n3)cc2C)n1C
3,165 to 167 °C,Cc1ncc(CNC(=O)c2sc(N3CCN(CC4CC4)C3=O)nc2C)s1
4,117 to 118 °C,COc1nc(C)nc(NC(=O)NS(=O)(=O)c2ccccc2OCC(Cl)CCl)n1 (centres undefined)
5,136 to 138 °C,O=C(O)CNC(=O)c1ccc([N+](=O)[O-])c(F)c1
6,106 to 107 °C,O=CN1CCN(C[C@H](O)COc2cccc3[nH]ccc23)CC1
7,134 to 135 °C,O=S(=O)(c1ccccc1)c1cc(Br)nc(Br)c1
8,188 to 190 °C,COc1cc(-c2cc3c(Cl)ccnc3[nH]2)cc(OC)c1OC
9,215 to 216 °C,O=C1Nc2ccccc2Sc2cscc21
10,208 °C,CCc1ccnc(C(=O)c2[nH]c3ccc(Cl)cc3c2CC(=O)O)c1F
11,295 to 296 °C,COc1ccc(N=Nc2ccc(O)c(C(=O)Nc3ccc(OC)c(-c4n[nH]c5cc(C)nn45)c3)c2)cc1
12,58 °C,O=C(C[C@@H](C(=O)OCc1ccccc1)n1c2ccccc2c2ccccc21)OCCOC(=O)c1ccc(NC(=O)OCc2ccccc2)cc1
13,217 to 218 °C,Cc1cc2c(cc1C)C(=O)C(=O)N2
14,> 260 °C,O=C1CCC(N2C(=O)c3cccc(CNC(=O)c4cncnc4)c3C2=O)C(=O)N1 (centres undefined)
15,197 to 198 °C,CC(=O)NC[C@H]1CN(c2ccc(N3CCN(C(=O)CCC(=O)c4ccc(Br)cc4)CC3)c(F)c2)C(=O)O1
16,192 to 198 °C,COCc1c(S(C)(=O)=O)ccc(C(=O)C2C(=O)CCCC2=O)c1C
17,125 to 126 °C,O[C@@H]1c2ccccc2C=C[C@H]1NCc1ccccc1 (relative stereo)
18,39 to 40 °C,O=C(CCCCCCCCC1CO1)OCCOC(=O)CCCCCCCCC1CO1 (centres undefined)
19,110 to 111 °C,CCCCCCCCc1nc2c(N)nc3ccccc3c2n1CCOCc1ccccc1
20,189 to 191 °C,Cn1c2c(c(=O)n(-c3ccc(Cl)c(C(=O)OC(C)(C)C)c3)c1=O)CCC2
21,135 °C,O=C(Cl)c1c2ccccc2nc2ccccc12

row,Structure (SMILES),melting point
1,COCCOCC(=O)C1CCC2C3CCC4CC(O)CCC4(C)C3C(=O)CC12C (centres undefined),115 to 121 °C
2,CC1C(=O)CN[C@H]2c3ccc(Cl)cc3CC[C@H]12 (some centres undefined),71.5 to 73 °C
3,CCc1cc(NC(=O)c2nnn(Cc3ccc(OC)cc3)n2)c(O)c(C(C)=O)c1,159 to 160 °C
4,CN1CCc2ccc3cc[nH]c3c2CC1,150 to 153 °C
5,CCOC(=O)c1cc2c(cn1)[nH]c1ccccc12,229 °C
6,CCC(C)c1cc(Cc2cc(C(C)CC)c(N)c(C)c2Cl)c(Cl)c(C)c1N (centres undefined),94 to 102 °C
